From patent US12168659B2, “Thioamide derivative and preparation method and application thereof” (Yunbaiyao Zhengwu Science and Technology (Shanghai) Co., …, priority 2022, dated 2024)

What was measured:
[1] = molecular target: MEK1 (Homo sapiens, UniProt Q02750); test: Raf-MEK-ERK cascade kinase assay using recombinant protein (MEK1); format: biochemical; conditions: 10 μM ATP, active B-Raf (V599E), 30° C. 30 minutes
Procedure: (§1) Experimental purpose: The inhibitory activity of the compounds on MEK1 and MEK2 was measured by performing a Raf-MEK-ERK cascade kinase assay using recombinant protein.
(§2) Experimental method: 2 mg of dephosphorylated myelin basic protein (MBP) was dispersed in a 0.2 M sodium carbonate aqueous solution (pH=9.4). The mixed solution was then coated onto an enzyme-linked immunosorbent assay (ELISA) plate (U-shaped bottom plate) and left to stand overnight at 4° C. […] Compound solutions with serial concentrations were tested in triplicate wells. A mixture of 2 ng of inactivated MEK1 (or 4 ng of MEK2) and 50 ng of inactivated ERK2 was dissolved in a buffer solution (20 mM MOPS [pH=7.4], 0.1% 2-mercaptoethanol, 0.1% BSA) at room temperature, and then treated with the above serial solutions on a flat plate. The plate was covered with 1% bovine serum albumin (BSA) and pre-incubated for 10 minutes. […] After incubation at 30° C. for 30 minutes, phosphorylation of MBP by ERK was detected using peroxidase-labeled anti-phosphorylated MBP antibodies. Data curves were plotted and half maximal inhibitory concentration (IC50) values were calculated using XLFit.

[2] = molecular target: MEK2 (Homo sapiens, UniProt P36507); test: Raf-MEK-ERK cascade kinase assay using recombinant protein (MEK2); format: biochemical; conditions: 10 μM ATP, active B-Raf (V599E), 30° C. 30 minutes
Procedure: as §1, §2

[3] = system: human malignant melanoma cells (A375); test: Anti-proliferative activity, CCK-8 assay, A375; format: cell-based; conditions: A-375, 72 h incubation
Procedure: (§3) Experimental procedure: Sample solutions with a concentration of 20 μM were prepared and serially diluted 5-fold downwards to obtain 10 concentrations: 20000 nM, 4000 nM, 800 nM, 160 nM, 32 nM, 6.4 nM, 1.28 nM, 0.256 nM, 0.0512 nM and 0.01024 nM. The sample solutions were incubated with the above cell lines for 72 h. Then 10 μL of a CCK-8 solution was then added to each well, followed by a further 2 hours incubation. An optical density (OD) value was measured at 450 nm using a fully automated microplate reader. Data were processed using GraphPad Prism 7 to calculate IC50.

[4] = system: human colon cancer cells (HCT-15); test: Anti-proliferative activity, CCK-8 assay, HCT-15; format: cell-based; conditions: 72 h incubation
Procedure: as §3

[5] = system: human non-small cell lung cancer cells (A549); test: Anti-proliferative activity, CCK-8 assay, A549; format: cell-based; conditions: 72 h incubation
Procedure: as §3

[6] = system: human colon cancer cells (HCT116); test: Anti-proliferative activity, CCK-8 assay, HCT116; format: cell-based; conditions: HCT-116, 72 h incubation
Procedure: as §3

[7] = system: human prostate cancer cells (PC-3); test: Anti-proliferative activity, CCK-8 assay, PC-3; format: cell-based; conditions: 72 h incubation
Procedure: as §3

[8] = system: human HCT116 subcutaneous xenograft tumors; test: In vivo anti-tumor assay, subcutaneous xenograft model; set-up: species or system BALB/c nude mouse; conditions: 3 mg/kg P.O. QD × 30 days; for Tumor growth inhibition, tumor volume change (FIG. 2): compared to the Trametinib group
Procedure: Experimental purpose: To evaluate the in vivo efficacy of the compounds in a subcutaneous xenograft model of human cancer cells in a Bagg's albino (BALB/c) nude mouse.
The tumor suppressive efficacy of the compounds was quantified by TGI (%) or relative tumor proliferation rate T/C (%). TGI (%) reflected the tumor growth inhibition rate. TGI(%) was calculated using the following equation: TGI(%)=[1−(mean tumor volume at the end of treatment in a treatment group-mean tumor volume at the start of treatment in the treatment group)/(mean tumor volume at the end of treatment in the solvent control group-mean tumor volume at the start of treatment in the solvent control group)]×100%.
T/C(%) was calculated using the following equation: T/C (%)=TRTV/CRTV×100%, where TRTV was an RTV of the treatment group, and CRTV was an RTV of the negative control group. The RTV was calculated from the results of tumor size measurements according to the following equation: RTV=Vt/V0, where V0 was a mean tumor volume measured on the day of first administration (i.e., day 0), Vt was a mean tumor volume measured on the day indicated, and TRTV and CRTV were obtained from data on the same day.

[9] = Body weight change of experimental mice in the xenograft study; conditions: 3 mg/kg gavage, 30 days
Description: Experimental procedure: The study evaluated the inhibitory effect of compounds administered by gavage against human HCT116 subcutaneous xenograft tumors in the BALB/c nude mouse model by measuring tumor size and calculating tumor volume (TV), relative tumor volume (RTV), relative tumor proliferation rate (T/C), and anti-tumor efficacy (TGI).

Chain of MEK2 (P36507 whole entry): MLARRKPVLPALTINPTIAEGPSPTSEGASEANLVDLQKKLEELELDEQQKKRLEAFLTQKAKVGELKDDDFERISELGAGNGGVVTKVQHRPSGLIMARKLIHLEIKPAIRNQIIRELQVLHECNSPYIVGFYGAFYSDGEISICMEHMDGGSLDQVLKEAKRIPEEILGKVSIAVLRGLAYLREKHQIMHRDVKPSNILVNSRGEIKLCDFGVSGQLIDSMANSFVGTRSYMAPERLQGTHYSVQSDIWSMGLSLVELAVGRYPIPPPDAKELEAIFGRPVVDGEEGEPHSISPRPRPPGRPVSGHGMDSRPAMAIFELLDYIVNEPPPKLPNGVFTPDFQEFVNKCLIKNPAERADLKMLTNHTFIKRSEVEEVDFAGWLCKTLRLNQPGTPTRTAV
Chain of MEK1 (Q02750 whole entry): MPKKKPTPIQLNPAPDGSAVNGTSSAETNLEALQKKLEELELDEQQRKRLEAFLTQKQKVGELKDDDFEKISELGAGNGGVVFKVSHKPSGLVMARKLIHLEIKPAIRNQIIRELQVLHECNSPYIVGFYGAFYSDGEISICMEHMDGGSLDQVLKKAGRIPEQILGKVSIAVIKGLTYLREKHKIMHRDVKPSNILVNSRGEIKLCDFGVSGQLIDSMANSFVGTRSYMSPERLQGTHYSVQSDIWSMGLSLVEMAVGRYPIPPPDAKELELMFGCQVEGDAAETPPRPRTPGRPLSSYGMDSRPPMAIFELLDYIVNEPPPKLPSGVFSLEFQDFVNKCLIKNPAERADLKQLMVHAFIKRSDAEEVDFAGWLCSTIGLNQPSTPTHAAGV

| Compound | IC50 [1] [nM] | IC50 [2] [nM] | IC50 [3] [nM] | IC50 [4] [nM] | IC50 [5] [nM] | IC50 [6] [nM] | IC50 [7] [nM] | T/C (relative tumor proliferation rate) [8] [%] | TGI (tumor growth inhibition rate) [8] [%] | Tumor volume (Day 30) [8] [mm^3] | Tumor growth inhibition, tumor volume change (FIG. 2) [8] | Weight loss at the end of the experiment / toxicity (FIG. 1) [9] |
| --- | --- | --- | --- | --- | --- | --- | --- | --- | --- | --- | --- | --- |
| CC(=S)Nc1cccc(-n2c(=O)n(C3CCCC3)c(=O)c3c(Nc4ccc(I)cc4F)n(C)c(=O)c(C)c32)c1 [Compound 4] | 1.36 | 1.05 | 3.9 | 9.8 | 2.4 | 1.6 | 1.4 |  |  |  |  |  |
| Cc1c(=O)n(C)c(Nc2ccc(I)cc2F)c2c(=O)n(C3CC3)c(=O)n(-c3cccc(NC(=S)C4CC4)c3)c12 [Compound 6] | 1.88 | 1.24 | 2.9 | 13.9 | 3.9 | 1.6 | 2.8 |  |  |  |  |  |
| CC(=S)Nc1cccc(-n2c(=O)n(C)c(=O)c3c(Nc4ccc(I)cc4F)n(C)c(=O)c(C)c32)c1 [Compound 1] | 1.21 | 1.09 | 3.5 | 15.4 | 2.6 | 2.9 | 2.4 |  |  |  |  |  |
| CCC(=S)Nc1cccc(-n2c(=O)n(C3CC3)c(=O)c3c(Nc4ccc(I)cc4F)n(C)c(=O)c(C)c32)c1 [Compound 5] |  | 1.19 | 2.6 | 20.1 | 3.6 | 3.8 | 3.3 |  |  |  |  |  |
| CC(=S)Nc1cccc(-n2c(=O)n(C3CC3)c(=O)c3c(Nc4ccc(I)cc4F)n(C)c(=O)c(C)c32)c1 [Compound 2] | 1.83 | 2.13 | 3.1 | 12.6 | 3.1 | 2.6 | 3.6 | 9.62 | 98.72 | 165 ± 21 | better inhibitory effects | toxicity of Trametinib was higher than that of compounds 2, 8 and 12 |
| Cc1c(=O)n(C)c(Nc2ccc(I)cc2F)c2c(=O)n(C3CC3)c(=O)n(-c3cccc(NC(=S)CO)c3)c12 [Compound 8] | 1.57 | 2.08 | 4.7 | 25.8 | 5.8 | 4.2 | 2.4 | 8.17 | 100.32 | 140 ± 26 | better inhibitory effects | toxicity of Trametinib was higher than that of compounds 2, 8 and 12 |
| Cc1c(=O)n(C)c(Nc2ccc(I)cc2F)c2c(=O)n(C3CC3)c(=O)n(-c3cccc(NC(=S)C(=O)O)c3)c12 [Compound 13] | 2.38 | 2.64 | 4.2 | 31.7 | 6.4 | 5.2 | 4.5 |  |  |  |  |  |
| Cc1c(=O)n(C)c(Nc2ccc(I)cc2F)c2c(=O)n(C3CC3)c(=O)n(-c3cccc(NC(=S)CN)c3)c12 [Compound 12] | 1.51 | 2.13 | 3.1 | 22.7 | 3.1 | 3.6 | 2.3 | 7.47 | 101.08 | 128 ± 19 | better inhibitory effects | toxicity of Trametinib was higher than that of compounds 2, 8 and 12 |
| CC(=S)Nc1cccc(-n2c(=O)n(C(C)C)c(=O)c3c(Nc4ccc(I)cc4F)n(C)c(=O)c(C)c32)c1 [Compound 3] | 0.9 | 0.98 | 2.5 | 14.8 | 1.5 | 2.1 | 1.9 |  |  |  |  |  |

Second part, led by results:

| IC50 [1] [nM] | IC50 [2] [nM] | IC50 [3] [nM] | IC50 [4] [nM] | IC50 [5] [nM] | IC50 [6] [nM] | IC50 [7] [nM] | Compound | T/C (relative tumor proliferation rate) [8] [%] | TGI (tumor growth inhibition rate) [8] [%] | Tumor volume (Day 30) [8] [mm^3] | Tumor growth inhibition, tumor volume change (FIG. 2) [8] | Weight loss at the end of the experiment / toxicity (FIG. 1) [9] |
| --- | --- | --- | --- | --- | --- | --- | --- | --- | --- | --- | --- | --- |
| 2.29 | 2.26 | 2.8 | 21.6 | 4.4 | 5.2 | 1.9 | CC(=S)Nc1ccc(F)c(-n2c(=O)n(C3CC3)c(=O)c3c(Nc4ccc(I)cc4F)n(C)c(=O)c(C)c32)c1 [Compound 9] |  |  |  |  |  |
| 2.01 | 2.07 | 1.8 | 14.9 | 8.5 | 6.4 | 2.3 | CC(=S)Nc1cc(F)cc(-n2c(=O)n(C3CC3)c(=O)c3c(Nc4ccc(I)cc4F)n(C)c(=O)c(C)c32)c1 [Compound 10] |  |  |  |  |  |
| 1.37 | 1.54 | 2.4 | 21.8 | 3.4 | 3.1 | 2.7 | CC(=S)Nc1cc(-n2c(=O)n(C3CC3)c(=O)c3c(Nc4ccc(I)cc4F)n(C)c(=O)c(C)c32)ccc1F [Compound 11] |  |  |  |  |  |
|  |  | 12.5 | 98.3 | 33.2 | 32.7 | 12.6 | CC(=O)Nc1cccc(-n2c(=O)n(C3CC3)c(=O)c3c(Nc4ccc(I)cc4F)n(C)c(=O)c(C)c32)c1 [Trametinib, reference compound] |  | 89.80 | 305 ± 34 |  |  |
| 0.95 | 1.01 | 4.3 | 24.2 | 2.8 | 2.7 | 2.1 | Cc1c(=O)n(C)c(Nc2ccc(I)cc2F)c2c(=O)n(C3CC3)c(=O)n(-c3cccc(NC(=S)C(C)C)c3)c12 [Compound 7] |  |  |  |  |  |
